Source: paper PMC10094617, “Iron(III) Complexes with Non-Steroidal Anti-Inflammatory Drugs: Structure, Antioxidant and Anticholinergic Activity, and Interaction with Biomolecules” (International Journal of Molecular Sciences, 2023)
Counter-ions that a name gives are not always drawn.

Experiments:
[1] = molecular target: T1, electric eel acetylcholinesterase (eeAChE) (Electrophorus electricus, UniProt O42275); assay: Inhibition of acetylcholinesterase (modified Ellman's method); format: biochemical; conditions: 10^−3 M of the compound, pH 7.4, 37 °C; for inhibition at 1000 µM: read-out: AChE (I%) inhibition rate
T1 construct: purchased J&K Scientific Co. (Beijing, China)
Method: (§1) In the study of cholinesterase inhibitors, the inhibitory effect of the compounds (the NSAIDs and their complexes 1–3) against AChE and BuChE was examined using a modified methodology based on Ellman’s method.
(§2) The ability of the compounds to inhibit AChE and BuChE was evaluated using UV-vis spectroscopy. All the assays were carried out in a 0.1M NaH2PO4/Na2HPO4 buffer at a pH = 7.4. Enzyme solutions were prepared with 2.0 U/mL for AChE and 3.0 U/mL for BuChE. A reaction mixture containing 20 μL of phosphate buffer, 100 μL of DTNB (1-mM), and 40 μL of the enzyme (AChE and BuChE) was incubated with 20 μL of the compounds at various concentrations at 37 °C for 15 min. The reaction was started by the addition of the substrate (20-μL) of ATCI or BTCI solution (1-mM), respectively, and incubation for additional 3 min.
(§3) The enzyme activity was determined by measuring the increase in absorbance at 2-min intervals at 412 nm at 37 °C (ε = 14,150 M^−1cm^−1).
The rate of inhibition of each enzyme by the compounds was calculated according to the following expression:(1) I%=(1−VB/VA)×100 where VB and VA indicate the absorbance measured for ChEs in the presence and absence of inhibitors, respectively. The results are expressed as the average of three repetitions of the tests performed and the standard deviation was less than 3% of the mean. The selectivity index (SI), defined as IC50 BuChE/IC50 AChE, was also calculated. Neostigmine methyl sulfate was used as the appropriate standard.

[2] = set-up: method as in PMID 8216032; conditions: cited from earlier work
[3] = Competition with DMSO for hydroxyl radicals; format: biochemical; conditions: compound 0.1 mM; 30 min, 37 °C, pH 7.4
Method: (§4) The antioxidant activity of complexes 1–3 was evaluated via their ability to scavenge the free radicals DPPH, hydroxyl, and ABTS. Each experiment was performed in triplicate and the standard deviation of absorbance was less than 10% of the mean.
Competition of the tested compounds with DMSO for hydroxyl radicals: The hydroxyl radicals generated by the Fe^3+/ascorbic acid system were detected according to Nash by the determination of formaldehyde produced from the oxidation of DMSO [155]. The reaction mixture contained EDTA (0.1 mM), Fe^3+ (167 μM), DMSO (33 mM) in phosphate buffer (50 mM, pH 7.4), complexes 1–3 (concentration 0.1 mM), and ascorbic acid (10 mM). After a 30-min incubation at 37 °C, the reaction was stopped with CCl3COOH (17% w/v) and the absorbance at λ = 412 nm was measured. Trolox was used as a reference compound. The competition of the compounds with DMSO for •OH, generated by the Fe^3+/ascorbic acid system, expressed as the percentage of inhibition of formaldehyde production, was used for the evaluation of their hydroxyl radical-scavenging activity (OH%).

[4] = ABTS radical cation scavenging; format: biochemical; conditions: compound 0.1 mM; 1 min after mixing
Method: as §4
Assay of radical cation scavenging activity (ABTS^+•): An ABTS cationic radical (ABTS^+•) was produced by reacting an aqueous stock solution (2 mM) of ABTS with 0.17-mM potassium persulfate and allowing the mixture to stand in the dark at room temperature for 12–16 h before use. […] Although the oxidation of ABTS commenced immediately, the absorbance became maximal and stable after 6 h. The radical was stable in this form for more than two days when stored in the dark at room temperature. The ABTS radical solution was diluted with ethanol to an absorbance of 0.70 at 734 nm. After the addition of 10 μL of complexes 1–3 or the standards (0.1 mM) in DMSO, the absorbance was recorded exactly 1 min after initial mixing. The radical scavenging activity of the complexes was expressed as the percentage inhibition of the absorbance of the initial ABTS solution (ABTS%). Trolox was used as a reference compound.

[5] = molecular target: T2, equine serum butyrylcholinesterase (eqBuChE) (Equus caballus, UniProt P81908); assay: Inhibition of butyrylcholinesterase (modified Ellman's method); format: biochemical; conditions: for inhibition at 1000 µM: read-out: BuChE (I%) inhibition rate; for SI (selectivity index = IBuChE/IAChE): ratio of inhibition rates at 10^−3 M
T2 construct: purchased J&K Scientific Co. (Beijing, China); host or cells: equine serum (by the product's name)
Method: as §1, §2, §3
The rate of inhibition of each enzyme by the compounds was calculated according to the following expression:(1) I%=(1−VB/VA)×100 where VB and VA indicate the absorbance measured for ChEs in the presence and absence of inhibitors, respectively. […] Neostigmine methyl sulfate was used as the appropriate standard.

[6] = DPPH radical scavenging; format: biochemical; conditions: compound 0.1 mM, ethanol
Method: as §4
Ethanol was also used as a control solution. The absorbance at 517 nm was recorded at room temperature, two times, after 20 and 60 min, in order to examine the time-dependence of the DPPH-scavenging activity. The DPPH-scavenging activity of the compounds was expressed as the percentage reduction of the absorbance values of the initial DPPH solution (RA%). The compounds NDGA and BHT were used as reference compounds.

[7] = Solubility of the complexes; format: physicochemical
[8] = tested on: EB–DNA adduct (CT DNA); assay: EB-displacement from EB–DNA adduct (fluorescence emission); format: binding, calf
Method: EB-displacement studies: The competition of complexes 1–3 with EB was investigated by fluorescence emission spectroscopy in order to examine whether the complexes can displace EB from its DNA–EB conjugate. The DNA–EB conjugate was prepared by adding 20-μM EB and 26-μM CT DNA in the buffer solution (150-mM NaCl and 15-mM trisodium citrate at pH 7.0). The possible intercalating effect of the complexes was studied by the addition of a certain amount of a solution of the compound into a solution of the DNA–EB conjugate. The influence of each compound to the DNA–EB complex solution was obtained by recording the changes in the fluorescence emission spectra with the excitation wavelength (λex) at 540 nm.
The Stern–Volmer constant KSV is used to evaluate the quenching efficiency for each compound according to the Stern–Volmer equation (Equation (3)), where Io and I are the emission intensities in the absence and the presence of the quencher, respectively, and [Q] is the concentration of the quencher (i.e., complexes 1–3). The value of KSV is obtained from the Stern–Volmer plots by using the slope of the diagram Io/I versus [Q]. Taking τo = 23 ns as the fluorescence lifetime of the EB–DNA system, the EB–DNA quenching constants (Kq, in M^−1s^−1) of the compounds can be determined according to Equation (4).

[9] = molecular target: calf-thymus (CT) DNA; set-up: method as in PMID 3427013; conditions: cited from earlier work
[10] = 10^−3 M of the compound, pH 7.4, 37 °C

T2 sequence (P81908 whole entry): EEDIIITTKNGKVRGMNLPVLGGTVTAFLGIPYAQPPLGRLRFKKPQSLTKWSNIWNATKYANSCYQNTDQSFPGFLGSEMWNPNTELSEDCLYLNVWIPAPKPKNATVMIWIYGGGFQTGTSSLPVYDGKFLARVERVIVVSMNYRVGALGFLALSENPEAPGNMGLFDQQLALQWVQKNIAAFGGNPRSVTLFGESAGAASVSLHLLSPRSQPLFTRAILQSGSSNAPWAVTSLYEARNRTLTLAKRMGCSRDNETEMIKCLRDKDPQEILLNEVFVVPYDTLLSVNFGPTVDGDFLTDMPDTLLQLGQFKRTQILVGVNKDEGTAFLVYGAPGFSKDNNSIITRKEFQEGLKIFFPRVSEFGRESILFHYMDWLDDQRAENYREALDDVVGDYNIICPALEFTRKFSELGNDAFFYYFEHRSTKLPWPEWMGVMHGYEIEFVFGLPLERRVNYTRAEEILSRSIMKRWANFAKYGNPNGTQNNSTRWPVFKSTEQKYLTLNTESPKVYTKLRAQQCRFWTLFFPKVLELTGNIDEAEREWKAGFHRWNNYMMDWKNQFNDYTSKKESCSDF
T1 sequence (O42275 24-633): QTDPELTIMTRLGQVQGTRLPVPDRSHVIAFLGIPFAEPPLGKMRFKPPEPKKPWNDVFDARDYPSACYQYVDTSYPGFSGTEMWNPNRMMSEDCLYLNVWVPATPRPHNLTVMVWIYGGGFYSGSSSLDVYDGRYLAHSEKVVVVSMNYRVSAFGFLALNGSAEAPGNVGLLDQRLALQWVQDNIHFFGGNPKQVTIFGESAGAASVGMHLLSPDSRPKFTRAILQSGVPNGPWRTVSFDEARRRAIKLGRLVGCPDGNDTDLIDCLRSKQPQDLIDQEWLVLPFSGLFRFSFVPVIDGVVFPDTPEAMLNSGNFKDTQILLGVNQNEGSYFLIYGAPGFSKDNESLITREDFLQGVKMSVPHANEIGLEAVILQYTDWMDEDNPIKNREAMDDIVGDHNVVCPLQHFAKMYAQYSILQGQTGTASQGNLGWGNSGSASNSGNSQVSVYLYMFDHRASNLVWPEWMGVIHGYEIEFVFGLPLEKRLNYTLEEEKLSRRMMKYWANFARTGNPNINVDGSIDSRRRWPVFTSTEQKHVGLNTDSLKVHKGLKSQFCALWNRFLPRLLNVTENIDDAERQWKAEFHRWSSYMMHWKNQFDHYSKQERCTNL

Compound	inhibition at 1000 µM [1] [%]	OH% (competition % with DMSO for hydroxyl radical) [3] [%]	ABTS% (ABTS radical scavenging activity) [4] [%]	inhibition at 1000 µM [5, 10] [%]	SI (selectivity index = IBuChE/IAChE) [5]	DPPH% (DPPH scavenging ability), 20 min [6] [%]	DPPH% (DPPH scavenging ability), 60 min [6] [%]	other results
O=C(O)c1cc(-c2ccc(F)cc2F)ccc1O [Complex H2difl, Diflunisal]	17.2 ± 1.46	86.06 ± 0.38	76.58 ± 0.74	22.9 ± 1.71	1.32	10.42 ± 0.56	14.31 ± 0.45	half-life period of activity [2]: ~ 12 h
CC(Cc1ccc(O)c(O)c1)C(C)Cc1ccc(O)c(O)c1 (centres unmarked) [NDGA, nordihydroguaiaretic acid]						81.02 ± 0.18	82.60 ± 0.17	
C[O-].C[O-].O.O=C([O-])c1cc(-c2ccc(F)cc2F)ccc1[O-].O=C([O-])c1cc(-c2ccc(F)cc2F)ccc1[O-].[Fe+3].[Fe+3].c1cnc2c(c1)ccc1cccnc12.c1cnc2c(c1)ccc1cccnc12 [Complex 1, [Fe2(difl)2(MeO)2(phen)2]∙H2O]		91.08 ± 1.81	85.38 ± 0.92			12.57 ± 0.29	15.86 ± 0.62	AChE (I%) inhibition rate [1]: 1.77 ± 0.82%; solubility [7]: Soluble in DMF and DMSO; KSV Stern–Volmer constant (EB–DNA) ([8]; EB–DNA fluorescence): 6.37 (±0.40) × 10^5 M^−1; ΔI/Io (%) EB–DNA fluorescence quenching ([8]; [EB] = 20 μM, [DNA] = 26 μM, λex 540 nm, λem 592 nm): 66.8%; Kq quenching constant of the EB–DNA fluorescence ([8]; τo = 23 ns): 2.77 (±0.10) × 10^13 M^−1s^−1; BuChE (I%) inhibition rate [5, 10]: 79.25 ± 2.00%
Cc1c(C)c2c(c(C)c1O)CCC(C)(C(=O)O)O2 (centres unmarked) [Trolox, 6-hydroxy-2,5,7,8-tetramethylchromane-2-carboxylic acid, reference compound]		82.80 ± 0.13	91.8 ± 0.17					
CC[n+]1c(-c2ccccc2)c2cc(N)ccc2c2ccc(N)cc21.[Br-] [EB, 3,8-diamino-5-ethyl-6-phenyl-phenanthridinium bromide]								Kb DNA-binding constant of the classical intercalator EB [9]: 1.23 (±0.07) × 10^5 M^−1
Cc1cc(C(C)(C)C)c(O)c(C(C)(C)C)c1 [BHT, butylated hydroxytoluene]						31.30 ± 0.10	60.00 ± 0.38	
O=C(O)Cc1ccccc1Nc1c(Cl)cccc1Cl [Nadicl, Sodium diclofenac]	10.3 ± 1.75	75.46 ± 0.44	76.35 ± 0.75	14.1 ± 0.12	1.37	18.26 ± 0.60	17.43 ± 0.23	
CN(C)C(=O)Oc1cccc([N+](C)(C)C)c1 [Neo, Neostigmine methyl sulfate]	96.98 ± 0.02			98.4 ± 1.55	1.01			
